Columns and labels:
[1] = Permeability of the compound at pH 7.4 by PAMPA; format: ADME; details: read-out: permeability
[2] = Efflux ratio of permeability from basolateral side to apical side over apical side to basolateral side in human Caco2 cells expressing p-gp at 3 uM incubated for 2 hrs by LC-MS/MS analysis; format: ADME, cell-based; details: Caco-2
[3] = Permeability across apical side to basolateral side in human Caco2 cells expressing p-gp at 3 uM incubated for 2 hrs by LC-MS/MS analysis; format: ADME, cell-based; details: Caco-2, read-out: permeability
[4] = Permeability across basolateral side to apical side in human Caco2 cells expressing p-gp at 3 uM incubated for 2 hrs by LC-MS/MS analysis; format: ADME, cell-based; details: Caco-2, read-out: permeability
[5] = Stability in human liver microsomes assessed as parent compound remaining; format: ADME, Microsome
[6] = Stability in rat liver microsomes assessed as parent compound remaining; format: ADME, Microsome
[7] = Half life in human liver microsomes; format: ADME, Microsome
[8] = Half life in rat liver microsomes; format: ADME, Microsome
[9] = Drug level in cannulated Sprague-Dawley rat liver at 6 mg/kg, po administered via gastric gavage measured after 5 hrs by LC-MS/MS analysis; format: ADME, organism-based; details: read-out: Drug uptake
[10] = Clearance in cannulated Sprague-Dawley rat at 2 mg/kg, iv administered as 10 mins infusion by LC-MS/MS analysis; format: ADME, organism-based; details: in vivo
[11] = Half life in cannulated Sprague-Dawley rat at 2 mg/kg, iv administered as 10 mins infusion by LC-MS/MS analysis; format: ADME, organism-based; details: in vivo
[12] = Volume of distribution at steady state in cannulated Sprague-Dawley rat at 2 mg/kg, iv administered as 10 mins infusion by LC-MS/MS analysis; format: ADME, organism-based; details: in vivo, read-out: Vdss
[13] = Cmax in cannulated Sprague-Dawley rat at 6 mg/kg, po administered via gastric gavage by LC-MS/MS analysis; format: ADME, organism-based; design: dose 6 mg/kg, route oral; details: in vivo
[14] = Tmax in cannulated Sprague-Dawley rat at 6 mg/kg, po administered via gastric gavage by LC-MS/MS analysis; format: ADME, organism-based; details: in vivo
[15] = AUC in cannulated Sprague-Dawley rat at 6 mg/kg, po administered via gastric gavage by LC-MS/MS analysis; format: ADME, organism-based; details: in vivo
[16] = Drug level in cannulated Sprague-Dawley rat liver at 6 mg/kg, po administered via gastric gavage measured after 24 hrs by LC-MS/MS analysis; format: ADME, organism-based; details: read-out: Drug uptake
[17] = Oral bioavailability in cannulated Sprague-Dawley rat at 6 mg/kg administered via gastric gavage by LC-MS/MS analysis; format: ADME, organism-based; details: in vivo
[18] = Drug level in cannulated Sprague-Dawley rat plasma at 6 mg/kg, po administered via gastric gavage measured after 5 hrs by LC-MS/MS analysis; format: ADME, organism-based

| SMILES | Papp [1] [×10⁻⁶ cm/s] | efflux ratio at 2 h, 3 µM [2] | Papp A→B at 2 h, 3 µM [3] [×10⁻⁶ cm/s] | Papp B→A at 2 h, 3 µM [4] [×10⁻⁶ cm/s] | other results |
| --- | --- | --- | --- | --- | --- |
| CCN(c1cc2oc(-c3ccc(F)cc3)c(C(=O)NC)c2cc1-c1cc(C)c(OC)c(C(=O)NC2(c3ncccn3)CC2)c1)S(C)(=O)=O | 40.9 | 9.8 | 3.3 | 32.2 |  |
| CNC(=O)c1c(-c2ccc(F)cc2)oc2cc(N(CCO)S(C)(=O)=O)c(-c3cccc(C(=O)NC4(c5ccccc5)CC4)c3)cc12 |  |  |  |  | Stability [5]: 63%; Stability [6]: 0.6% |
| CNC(=O)c1c(-c2ccc(F)cc2)oc2ccc(-c3cccc(C(=O)NC4(c5ccccn5)CC4)c3)cc12 |  |  |  |  | Stability [5]: 91%; Stability [6]: 54% |
| CCN(c1cc2oc(-c3ccc(F)cc3)c(C(=O)NC)c2cc1-c1cccc(C(=O)NC2(c3ncccn3)CC2)c1)S(C)(=O)=O |  | > 8.6 | < 1.5 | 13 | Stability [5]: 100%; Stability [6]: 91%; half-life [7]: > 2 h; half-life [8]: 0.817 h |
| CNC(=O)c1c(-c2ccc(F)cc2)oc2cc(N(CCO)S(C)(=O)=O)c(-c3cccc(C(=O)NC4(c5ccccn5)CC4)c3)cc12 |  |  |  |  | Stability [5]: 99%; Stability [6]: 8.7% |
| CCN(c1cc2oc(-c3ccc(F)cc3)c(C(=O)NC)c2cc1-c1cc(Cl)c(OC)c(C(=O)NC2(c3ncccn3)CC2)c1)S(C)(=O)=O | 82.1 | 2.2 | 5.2 | 11.4 | half-life [7]: 0.232 h; half-life [8]: 0.433 h; concentration at 5 h [18]: 277 nM; concentration at 5 h [9]: 7180 nM |
| CCN(c1cc2oc(-c3ccc(F)cc3)c(C(=O)NC)c2cc1-c1cc(F)c(F)c(C(=O)NC2(c3ncccn3)CC2)c1)S(C)(=O)=O | 73.1 | 7.8 | 7.9 | 62.3 |  |
| CCN(c1cc2oc(-c3ccc(F)cc3)c(C(=O)NC)c2cc1-c1cc(F)c(OC)c(C(=O)NC2(c3ncccn3)CC2)c1)S(C)(=O)=O | 65.9 | 13.8 | 2.9 | 40.6 |  |

More lines, main results first:

| Papp [1] [×10⁻⁶ cm/s] | efflux ratio at 2 h, 3 µM [2] | Papp A→B at 2 h, 3 µM [3] [×10⁻⁶ cm/s] | Papp B→A at 2 h, 3 µM [4] [×10⁻⁶ cm/s] | SMILES | other results |
| --- | --- | --- | --- | --- | --- |
| 46.6 | > 20.5 | < 1.5 | 30.8 | CCN(C(C)=O)c1cc2oc(-c3ccc(F)cc3)c(C(=O)NC)c2cc1-c1ccc(OC)c(C(=O)NC2(c3ncccn3)CC2)c1 |  |
| 72 | 0.8 | 23.2 | 17.6 | CCNc1cc2oc(-c3ccc(F)cc3)c(C(=O)NC)c2cc1-c1ccc(OC)c(C(=O)NC2(c3ncccn3)CC2)c1 | half-life [7]: 0.6 h; half-life [8]: 0.65 h; concentration at 5 h [9]: 5260 nM; clearance [10]: 11 mL/min/kg; half-life [11]: 4.7 h; Vd [12]: 4 L/kg; Cmax [13]: 776 nM; Tmax [14]: 5.3 h; AUC [15]: 7.8 µM·h; concentration at 24 h [16]: 391 nM; bioavailability [17]: 57% |
| 57.5 | 24.1 | 2 | 47.9 | CCN(C(=O)N(C)C)c1cc2oc(-c3ccc(F)cc3)c(C(=O)NC)c2cc1-c1ccc(OC)c(C(=O)NC2(c3ncccn3)CC2)c1 |  |
| 48.7 | > 12.4 | < 1.5 | 18.5 | CCN(c1cc2oc(-c3ccc(F)cc3)c(C(=O)NC)c2cc1-c1ccc(OC)c(C(=O)NC2(c3ncccn3)CC2)c1)S(C)(=O)=O | half-life [7]: 1.52 h; half-life [8]: > 2 h; concentration at 5 h [9]: 1180 nM; clearance [10]: 60 mL/min/kg; half-life [11]: 1.6 h; Vd [12]: 14 L/kg; Cmax [13]: 223 nM; Tmax [14]: 1.9 h; AUC [15]: 0.74 µM·h; bioavailability [17]: 20% |
| 66 | 9.6 | 2.4 | 23.2 | CCN(C(=O)OC)c1cc2oc(-c3ccc(F)cc3)c(C(=O)NC)c2cc1-c1ccc(OC)c(C(=O)NC2(c3ncccn3)CC2)c1 |  |
| 83.5 | 2.7 | 4.2 | 11.5 | CCN(C(=O)C(F)(F)F)c1cc2oc(-c3ccc(F)cc3)c(C(=O)NC)c2cc1-c1ccc(OC)c(C(=O)NC2(c3ncccn3)CC2)c1 |  |

From ChEMBL document CHEMBL4325928, “Structure-Property Basis for Solving Transporter-Mediated Efflux and Pan-Genotypic Inhibition in HCV NS5B Inhibitors” (ACS Med Chem Lett, 2018)
